Measurements from patent US20040086901A1, “Database for analyzing gene function and method of analyzing gene function by dspa” (priority 2000, published 2004).

How the values were obtained:
Type in all cases: cell-based, mouse
[1] = system: NIH3T3 cells overexpressing v-src; assay: MTT cell viability, v-src overexpressing cells vs parental line; settings: v-src high-expressing cells / parental cell line, 3 to 4 days
In short: (§1)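 Stable NIH3T3 transfectants (cDNA in pRc-CMV-type vector, G-418-selected, high expressers picked by Western blot) and parental cells were seeded at 1×10^5 cells/ml into twofold serial drug dilutions and grown 3–4 days. MTT formazan was read at 574/655 nm, and log ratios of IC40 values were derived.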

[2] = system: NIH3T3 cells overexpressing erbB2; assay: MTT cell viability, erbB2 overexpressing cells vs parental line; settings: erbB2 high-expressing cells / parental cell line, 3 to 4 days
In short: as §1

[3] = system: NIH3T3 cells overexpressing m-calpain; assay: MTT cell viability, m-calpain overexpressing cells vs parental line; settings: m-calpain high-expressing cells / parental cell line, 3 to 4 days
In short: (§2)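 Sensitivity is expressed as the logarithm of the ratio of IC40 values between gene-overexpressing and parental NIH3T3 cells. IC40 comes from an MTT assay after 3–4 days of drug exposure, with absorbance read at 574 nm against 655 nm. Untreated wells served as 100% and cell-free wells as 0% controls.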

[4] = system: NIH3T3 cells overexpressing cAMP-PK-CS; assay: MTT cell viability, cAMP-PK-CS overexpressing cells vs parental line; settings: cAMP-PK-CS high-expressing cells / parental cell line, 3 to 4 days
In short: as §2

[5] = system: NIH3T3 cells overexpressing CP-antisense; assay: MTT cell viability, CP-antisense cells vs parental line; settings: 3 to 4 days
In short: as §1

[6] = system: NIH3T3 cells overexpressing DAN; assay: MTT cell viability, DAN overexpressing cells vs parental line; settings: DAN high-expressing cells / parental cell line, 3 to 4 days
In short: as §1

[7] = system: NIH3T3 cells overexpressing cystatin E; assay: MTT cell viability, cystatin E overexpressing cells vs parental line; settings: cystatin E high-expressing cells / parental cell line, 3 to 4 days
In short: as §1

[8] = system: NIH3T3 cells overexpressing caspase-1; assay: MTT cell viability, caspase-1 overexpressing cells vs parental line; settings: caspase-1 high-expressing cells / parental cell line, 3 to 4 days
In short: as §2

[9] = system: NIH3T3 cells overexpressing RhoA; assay: MTT cell viability, RhoA overexpressing cells vs parental line; settings: RhoA high-expressing cells / parental cell line, 3 to 4 days
In short: as §1

[10] = system: NIH3T3 cells overexpressing PDGF-R; assay: MTT cell viability, PDGF-R overexpressing cells vs parental line; settings: PDGF-R high-expressing cells / parental cell line, 3 to 4 days
In short: as §1

[11] = system: NIH3T3 cells overexpressing CBP8; assay: MTT cell viability, CBP8 overexpressing cells vs parental line; settings: CBP8 high-expressing cells / parental cell line, 3 to 4 days
In short: as §1

[12] = system: NIH3T3 cells overexpressing PKCalpha-KN; assay: MTT cell viability, PKCalpha-KN overexpressing cells vs parental line; settings: 3 to 4 days
In short: as §2

[13] = system: NIH3T3 cells overexpressing PKCepsilon-KN; assay: MTT cell viability, PKCepsilon-KN overexpressing cells vs parental line; settings: 3 to 4 days
In short: as §2

[14] = system: NIH3T3 cells, TPA (PKC downreg); assay: MTT cell viability, TPA (PKC downreg) cells vs parental line; settings: 3 to 4 days
[15] = system: NIH3T3 cells overexpressing p38-DN; assay: MTT cell viability, p38-DN overexpressing cells vs parental line; settings: p38-DN high-expressing cells / parental cell line, 3 to 4 days
In short: as §2

[16] = system: NIH3T3 cells overexpressing HSP4O; assay: MTT cell viability, HSP4O overexpressing cells vs parental line; settings: HSP4O high-expressing cells / parental cell line, 3 to 4 days
In short: as §1

[17] = system: NIH3T3 cells overexpressing CaMKIIa; assay: MTT cell viability, CaMKIIa overexpressing cells vs parental line; settings: CaMKIIa high-expressing cells / parental cell line, 3 to 4 days
In short: as §2

[18] = system: NIH3T3 cells overexpressing HNF1; assay: MTT cell viability, HNF1 overexpressing cells vs parental line; settings: HNF1 high-expressing cells / parental cell line, 3 to 4 days
In short: as §2

[19] = system: NIH3T3 cells overexpressing HNF3b; assay: MTT cell viability, HNF3b overexpressing cells vs parental line; settings: HNF3b high-expressing cells / parental cell line, 3 to 4 days
In short: as §2

[20] = system: NIH3T3 cells overexpressing HNF4; assay: MTT cell viability, HNF4 overexpressing cells vs parental line; settings: HNF4 high-expressing cells / parental cell line, 3 to 4 days
In short: as §2

[21] = PKCalpha-KN (first of two lines) high-expressing cells / parental cell line
[22] = PKCalpha-KN (second of two lines) high-expressing cells / parental cell line
[23] = PKCepsilon-KN (first of two lines) high-expressing cells / parental cell line
[24] = PKCepsilon-KN (second of two lines) high-expressing cells / parental cell line

Compound | logarithmic value of ratio of IC40 values [1] | logarithmic value of ratio of IC40 values [2] | logarithmic value of ratio of IC40 values [3] | logarithmic value of ratio of IC40 values [4] | logarithmic value of ratio of IC40 values [5] | logarithmic value of ratio of IC40 values [6] | logarithmic value of ratio of IC40 values [7] | logarithmic value of ratio of IC40 values [8] | logarithmic value of ratio of IC40 values [9] | logarithmic value of ratio of IC40 values [10] | logarithmic value of ratio of IC40 values [11] | logarithmic value of ratio of IC40 values [12, 21] | logarithmic value of ratio of IC40 values [12, 22] | logarithmic value of ratio of IC40 values [13, 23] | logarithmic value of ratio of IC40 values [13, 24] | logarithmic value of ratio of IC40 values [14] | logarithmic value of ratio of IC40 values [15] | logarithmic value of ratio of IC40 values [16] | logarithmic value of ratio of IC40 values [17] | logarithmic value of ratio of IC40 values [18] | other results
C[C@@H]1O[C@@H](O[C@H]2C[C@@H](O)[C@]3(CO)[C@H]4[C@H](O)C[C@]5(C)[C@@H](C6=CC(=O)OC6)CC[C@]5(O)[C@@H]4CC[C@]3(O)C2)[C@H](O)[C@H](O)[C@H]1O [Ouabain, ouabain] | 0.00 | 0.18 | 0.05 | 0.00 | 0.28 | 0.74 | 0.49 | 1.26 | 0.15 | 0.34 | 0.58 | 0.00 | 0.06 | −0.15 | −0.12 | −0.08 | 0.41 | 0.00 | 0.23 | 0.103 | logarithmic value of ratio of IC40 values [19]: −0.23; logarithmic value of ratio of IC40 values [20]: −0.08
CCCC[C@@H](C)/C=C(C)/C=C(\C)C(=O)NC1=C[C@@](O)(/C=C/C=C/C=C/C(=O)NC2=C(O)CCC2=O)[C@@H]2O[C@@H]2C1=O [Manumycin, manumycin] | 0.00 | −0.05 | 0.05 | 0.08 | 0.00 | 0.00 | 0.00 | −0.06 | −0.04 | 0.17 | 0.09 | 0.00 | 0.16 | −0.11 | 0.16 | 0.03 | 0.00 | −0.06 | 0.00 | 0.06 | logarithmic value of ratio of IC40 values [19]: −0.06; logarithmic value of ratio of IC40 values [20]: 0.00
C=C[C@]1(C)CC[C@@H](C(=C)C)C[C@H]1C(=C)C [b-elemene, β-elemene] | −0.35 | −0.46 | 0.00 | −0.10 | 0.00 | 0.04 | 0.07 | 0.11 | 0.00 | 0.00 | 0.06 | 0.07 | −0.07 | 0.00 | −0.23 | 0.00 | 0.05 | 0.02 | 0.16 | 0.02 | logarithmic value of ratio of IC40 values [19]: −0.07; logarithmic value of ratio of IC40 values [20]: 0.33
O=[As]O [NaAsO2, sodium arsenite] | 0.11 | −0.15 | −0.16 | 0.07 | 0.02 | −0.15 | 0.15 | −0.21 | 0.07 | 0.14 | 0.21 | 0.16 | 0.22 | −0.07 | 0.35 | −0.20 | 0.00 | −0.02 | 0.00 | −0.14 | logarithmic value of ratio of IC40 values [19]: 0.00; logarithmic value of ratio of IC40 values [20]: 0.00
COC(=O)[C@@]1(O)C[C@H]2O[C@]1(C)n1c3ccccc3c3c4c(c5c6ccccc6n2c5c31)C(=O)NC4 [K252a] | −0.22 | 0.15 | 0.13 | −0.04 | 0.00 | −0.46 | −0.19 | 0.04 | 0.10 | 0.10 | 0.28 | 0.16 | 0.02 | 0.00 | −0.09 | −0.13 | −0.15 | 0.07 | 0.04 | −0.207 | logarithmic value of ratio of IC40 values [19]: −0.21; logarithmic value of ratio of IC40 values [20]: −0.22
COc1ccc2c(c1)CC[C@@H]1[C@@H]2CC[C@]2(C)[C@@H](NCCCCCCN3C(=O)C=CC3=O)CC[C@@H]12 [U73122] | −0.59 | −0.96 | −0.14 | −0.18 | −0.10 | 0.36 | −0.07 | 0.53 | 0.12 | −0.11 | 0.18 | −0.33 | −0.97 | −0.21 | −0.38 | −0.12 | 0.00 | −0.20 | −0.05 | 0.07 | logarithmic value of ratio of IC40 values [19]: −0.31; logarithmic value of ratio of IC40 values [20]: 0.00
